What all share (assay type): in vivo, rat
Assay [1] in a line: Assay A: angiotensin II infusion model, heart histology (hematoxylin&eosin), vascular inflammation and myocardial injury. The following applies: Wistar rats, 1% NaCl, angiotensin II 25 ng/min sc, 4 weeks, 10/group; eplerenone 100 mpk; aldosterone replacement in adrenalectomized rats. The text has this: Assay A: In Vivo Angiotensin II Infusion Model
Male Wistar rats (n=50, 10/group; BW=200 g)
Sacrifice by exanguination after 4 weeks. Blood was be collected in dry tubes for determination of serum electrolytes and in EDTA-containing tubes for measurement of aldosterone and corticosterone levels
Hearts were stained with hematoxylin&eosin and have been analyzed for determination of morphologic abnormalities (i.e. necrosis, vascular injury).

The test system of the next assay is cyclooxygenase-2 (COX-2). The experiment in a line: Assay A: cyclooxygenase-2 immunostaining of hearts. The settings on record: angiotensin II-infused, saline-drinking Wistar rats, eplerenone 100 mpk, aldosterone replacement in adrenalectomized rats.
Assay [2] deals with osteopontin. The experiment in a line: Assay B: osteopontin immunohistochemistry in the heart. The following applies: aldosterone-infused, saline-drinking, uninephrectomized rats, eplerenone 100 mpk p.o, increased dietary potassium. The method, then: Assay B: In Vivo Aldosterone Infusion Model
Determination of osteopontin and COX-2 was performed by quantitative RT-PCR (Taqman). Osteopontin was also identified in the heart by immunohistochemistry.

The test system of assay [3] is Atrial natriuretic factor (ANP). The experiment in a line: Assay C: ANP mRNA in left ventricle, TaqMan. The following applies: aldosterone+salt alone or with eplerenone 100 mg/kg/day; 7, 14, 30 days. The protocol:
(§1) The procedure of Assay B was expanded upon in a further study. […] Myocardial tissue from animals in each treatment group was examined after 7, 14, or 30 days of treatment.
(§2) Potassium chloride supplementation was added to the saline solution in order to prevent the potential hypokalemia associated with aldosterone excess.
(§3) Treatment At the time of the surgery, an Alzet 2002 osmotic minipump (Alza Corp., Palo Alto, Calif.) containing either vehicle (9% ethanol/87% propylene glycol/4% dH2O) or 1.0 mg/mL d-aldosterone (Sigma Chemical, St. Louis, Mo.) was inserted subcutaneously at the nape of the neck. Aldosterone was administered at a dose of 0.75 µg/hour. […]
(§4) The fluorogenic 5′-nuclease assay (TaqMan PCR) using Applied Biosystems' 7700 Sequence Detection System (Applied Biosystems, Foster City, Calif.) allowed for real time detection/quantitation of a specific gene by monitoring the increase in fluorescence of a gene-specific, dye-labeled oligonucleotide probe. […] When the probe was annealed to the target gene, fluorescence of 6FAM was prevented by the close proximity of TAMRA. The exonuclease activity of Taq polymerase released the dyes from the oligonucleotide probe by displacing the probe from the target sequence resulting in fluorescence excitation in direct proportion to the amount of target message present. […]
(In qPCR the cycle at which signal appears reflects the starting amount.)

The next assay deals with Collagen I. The assay is described as follows: Assay C: Collagen I mRNA, TaqMan. The settings on record: 30 days, compared to vehicle+salt controls. The method, then: as §1, §2, §3, §4
In assay [4] the test system is osteopontin. The assay is described as follows: Assay C: Osteopontin mRNA, TaqMan. The following applies: 7, 14, 30 days; aldosterone+salt alone or with eplerenone 100 mg/kg/day. The method, then:
as §1, §2, §3, §4

Entries after “also recorded” stand apart in the source; their conditions may differ.

On to `COC(=O)[C@@H]1CC2=CC(=O)CC[C@]2(C)[C@@]23O[C@@H]2C[C@@]2(C)[C@@H](CC[C@@]24CCC(=O)O4)[C@H]13` [eplerenone], for which the “Vascular inflammatory lesions in the coronary arteries / heart” value in assay [1] was “prevention by eplerenone (epoxymexrenone) of vascular inflammation; also recorded: one of the ten”. Also, the “Cyclooxygenase-2 expression in the heart (immunostaining)” value was “prevention by eplerenone of induction of COX-2 expression” with cyclooxygenase-2 (COX-2); “markedly reduced and in most cases completely prevented the expression of cycloxygenase-2” in the assay on cyclooxygenase-2 (COX-2) (listed as Eplerenone). Further, the results for the “Osteopontin expression in the heart (immunostaining)” value with osteopontin [2] and with osteopontin [2] (listed as Eplerenone) were “prevention by eplerenone of induction of osteopontin expression; also recorded: prevention by eplerenone of osteopontin upregulation” and “prevented the expression of osteopontin”, respectively. In assay [3], the “Atrial natiuretic peptide (ANP) mRNA levels” value is on record as “significantly reduced by eplerenone after 30 days of treatment but not after 14 days”. Further, the “Collagen type-I message” value in the assay on Collagen I is “modest increase”. Moreover, the “Osteopontin mRNA expression in myocardium” value in the assay on osteopontin [4] is listed as “significantly reduced; also recorded: inhibition of early time-course expression of myocardial osteopontin”.

Turning to `C[C@]12CCC(=O)C=C1CC[C@@H]1[C@@H]2[C@@H](O)C[C@]2(C=O)[C@@H](C(=O)CO)CC[C@@H]12` [aldosterone], the “Vascular inflammatory lesions in the coronary arteries / heart” value in assay [1] was “restored the severe coronary and myocardial inflammation and injury”. Also, the “Cyclooxygenase-2 expression in the heart (immunostaining)” value in the assay with cyclooxygenase-2 (COX-2) is “restored the presence of cycloxygenase-2 in coronary arteries”. For the same molecule, the “Osteopontin expression in the heart (immunostaining)” value in the assay with osteopontin [2] is given as “clearly identified in the media of coronary arteries”. Also, the “Atrial natiuretic peptide (ANP) mRNA levels” value in assay [3] is on record as “Significant elevations”. Further, the “Collagen type-I message” value with Collagen I is recorded as “modest increase”. Further, the “Osteopontin mRNA expression in myocardium” value in the assay with osteopontin [4] was “markedly upregulated”.

The record behind these values is patent US20040037806A1, “Aldosterone blocker therapy to prevent or treat inflammation-related disorders” (Pharmacia Corporation, priority 2002, published 2004).
